Results taken from US20050276862A1, “Iron sequestering antimicrobial composition” (priority 2004, published 2005).

Assay: Log stability constants of ligands for metal ions (literature)
Settings: Fe(III) minus Ca
Text: A measure of the “affinity” of metal-ion sequestrants for various metal-ions is given by the stability constant (also often referred to as critical stability constants, complex formation constants, equilibrium constants, or formation constants) of that sequestrant for a given metal-ion. […] The ability of a specific molecule or ligand to sequester a metal-ion may depend also upon the pH, the concentrations of interfering ions, and the rate of complex formation (kinetics). Generally, however, the greater the stability constant, the greater the binding affinity for that particular metal-ion. Often the stability constants are expressed as the natural logarithm of the stability constant. Herein the stability constant for the reaction of a metal-ion (M) and a sequestrant or ligand (L) is defined as follows: M+n L⇄MLn
where the stability constant is βn=[MLn]/[M][L]^n, wherein [MLn] is the concentration of “complexed” metal-ion, [M] is the concentration of free (uncomplexed) metal-ion and [L] is the concentration of free ligand. The log of the stability constant is log βn, and n is the number of ligands which coordinate with the metal. It follows from the above equation that if βn is very large, the concentration of “free” metal-ion will be very low. […]

## O=C(O)CN(CCN(CC(=O)O)CC(=O)O)CCN(CC(=O)O)CC(=O)O [DTPA, diethylenetriaminepentaacetic acid]
  difference between the log stability constants (specificity): 17.2
